This is an account of results in patent US6828327B2, “Macroheterocylic compounds useful as kinase inhibitors” (Ortho-McNeil Pharmaceutical, Inc., priority 2000, dated 2004).

Some results are limits rather than exact numbers.

What all share (assay type): biochemical
One assay has as its target T1, Casein Kinase 1 (Rattus norvegicus, UniProt Q06486).
T1 construct: a protein truncation at amino acid 318 of the C-terminal portion of the rat CK1 delta isoform; purchased New England Biolabs, Beverly, Mass; 6030; host or cells: E. coli
T1 sequence (Q06486 1-317 limits assumed): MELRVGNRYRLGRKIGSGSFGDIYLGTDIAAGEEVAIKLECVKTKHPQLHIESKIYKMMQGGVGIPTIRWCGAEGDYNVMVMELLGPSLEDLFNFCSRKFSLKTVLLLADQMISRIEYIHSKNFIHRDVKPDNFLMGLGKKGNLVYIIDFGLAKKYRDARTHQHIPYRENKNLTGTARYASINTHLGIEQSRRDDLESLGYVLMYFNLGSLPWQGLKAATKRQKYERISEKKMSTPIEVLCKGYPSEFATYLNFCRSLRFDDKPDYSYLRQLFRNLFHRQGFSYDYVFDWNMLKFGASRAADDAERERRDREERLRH
Nature of the assay: Biotinylated Peptide Substrate Assay, Casein Kinase 1. How it is done: (§1) Assays to test inhibition of a compound for other kinases were preformed using methods that measure the amount of phosphorylation of a biotinylated peptide substrate. Biotinylated peptide substrates were selected from the literature as appropriate for the enzyme being evaluated.
(§2) A kinase reaction mix was prepared in 50 mM Tris-HCl pH=8, 10 mM MgCl2, 0.1 mM Na3VO4, 1 mM DTT, 10 μM ATP, 0.25-1 μM biotinylated peptide substrate, 0.2-0.8 μCuries per well ^33P-γ-ATP (2000-3000 Ci/mmol). Assay conditions vary slightly for each protein kinase, for example, insulin receptor kinase requires 10 mM MnCl2 for activity and Calmodulin-dependent protein kinase requires calmodulin and 10 mM CaCl2. The reaction mixture was dispensed into the wells of a streptavidin coated Flashplate and 1 μL drug stock in 100% DMSO was added to a 100 μL reaction volume resulting in a final concentration of 1% DMSO in the reaction. Enzyme was diluted in 50 mM Tris-HCl pH=8.0, 0.1% BSA and added to each well. The reaction was incubated for one hour at 30° C. in the presence of compound. After one hour the reaction mix was aspirated from the plate and the plate was washed with PBS containing 100 mM EDTA. The plate was read on a scintillation counter to determine ^33P-γ-ATP incorporated into the immobilized peptide. Test compounds were assayed in duplicate at 8 concentrations (100 uM, 10 uM, 1 uM, 100 nM, 10 nM, 1 nM, 100 pM, 10 pM). A maximum and minimum signal for the assay was determined on each plate.
(§3) The IC50 was calculated from the dose response curve of the percent inhibition of the maximum signal in the assay according to the formula:
(§4) % Inhibition=((MS−BS)/(TCS−BS))×100%
(§5) where MS=Maximum Signal, BS=Background Signal, TCS=Test Compound Signal. The percent inhibition was graphed against the log concentration of the test compound. Known inhibitor compounds as appropriate references for the kinase being assayed were also included on each plate.
(§6) VEGF-R (vascular endothelial growth factor receptor-2) is a fusion protein containing a polyhistidine tag at the N-terminus followed by amino acids 786-1343 of the rat VEGF-R2 kinase domain (GenBank Accession #U93306). Protein Kinase A is the catalytic subunit of cAMP dependent protein kinase-A purified from bovine heart (Upstate Biotech, Lake Placid, N.Y., Cat#14-114). CDK1 (cyclin dependent kinase 1) is isolated from insect cells expressing both the human CDK1 catalytic subunit and its positive regulatory subunit cyclin B (New England Biolabs, Beverly, Mass., Cat. #6020). Casein Kinase-1 is a protein truncation at amino acid 318 of the C-terminal portion of the rat CK1 delta isoform produced in E.coli (New England Biolabs, Beverly, Mass., Cat. #6030). […]

A further assay has as its target T2, CDK1 (Homo sapiens, UniProt P06493).
T2 construct: purchased New England Biolabs, Beverly, Mass; 6020; host or cells: insect cells
Kind of assay: Biotinylated Peptide Substrate Assay, CDK1. To be noted: read-out: CDK1 Kinase Assay (IC50 uM). How it is done:
as §1, §2, §3, §4, §5, §6

The next assay concerns the target T3, PKC-γ (Homo sapiens, UniProt P05129).
T3 construct: purchased PanVera, Madison Wis; host or cells: baculovirus expression vector
Nature of the assay: Protein Kinase C Scintillation Proximity Assay (SPA), PKC-γ. To be noted: inhibition value, recombinant human isozyme, 1 μM ATP. As to the method: The binding activity of a compound for Protein Kinase C (PKC) was assessed using a homogeneous Scintillation Proximity Assay according to the procedure below.
The different human PKC isozymes (were obtained from PanVera, Madison Wis. and had been prepared as recombinant enzymes produced from a baculovirus expression vector) were added to a reaction mixture containing a test compound, 20 mM HEPES (pH 7.4), 100 μM CaCl2, 10 mM MgCl2, 100 μg/mL phosphatidylserine, 20 μg/mL diacylglycerol, 1 μM ATP, 0.8 μCi (^33P)ATP, and 5 μg/mL biotinylated substrate peptide (Jing Zhao et al., J. Bio. Chem., 1998, 273, 23072). The reaction was incubated for 15 min at 30° C. Reactions were terminated by the addition of streptavidin-coated SPA beads (Amersham) in a solution containing 1 mM EGTA, 10 mM EDTA and 100 μM ATP. Beads were allowed to settle overnight and the plates read in a Wallac MICROBETA scintillation counter (PerkinElmer Life sciences, Wellesley, Mass.).
Values for inhibition of various PKC isozymes and GSK 3-β by certain compounds of the invention tested in the PKC SPA and GSK 3-β assays are shown in Table 1.
Background: In a scintillation proximity assay essentially only radioactivity close to the scintillant gives light.

The target of another assay is T4, Map kinase ERK-2 (Rattus norvegicus, UniProt P63086).
T4 construct: polyhistidine (N); purchased BIOMOL, Plymouth Meeting, Pa; SE-137; host or cells: E. coli
T4 sequence (P63086 whole entry): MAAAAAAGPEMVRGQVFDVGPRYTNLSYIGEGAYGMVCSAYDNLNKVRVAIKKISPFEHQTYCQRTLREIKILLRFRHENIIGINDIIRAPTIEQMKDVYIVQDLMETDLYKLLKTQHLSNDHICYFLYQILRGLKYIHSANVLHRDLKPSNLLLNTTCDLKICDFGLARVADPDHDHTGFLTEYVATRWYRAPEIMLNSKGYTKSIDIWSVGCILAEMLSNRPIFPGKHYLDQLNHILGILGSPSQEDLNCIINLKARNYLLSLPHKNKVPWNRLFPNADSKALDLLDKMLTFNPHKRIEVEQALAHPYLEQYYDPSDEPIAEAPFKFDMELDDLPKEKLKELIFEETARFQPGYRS
Nature of the assay: Biotinylated Peptide Substrate Assay, Map kinase ERK-2. How it is done:
as §1, §2, §3, §4, §5, §6

In a further assay the target is T5, Insulin-R kinase (Homo sapiens, UniProt P06213).
T5 construct: consists of residues 941-1313 of the cytoplasmic domain of the beta-subunit of the human insulin receptor; purchased BIOMOL, Plymouth Meeting, Pa; SE-195
T5 sequence (P06213 980-1352): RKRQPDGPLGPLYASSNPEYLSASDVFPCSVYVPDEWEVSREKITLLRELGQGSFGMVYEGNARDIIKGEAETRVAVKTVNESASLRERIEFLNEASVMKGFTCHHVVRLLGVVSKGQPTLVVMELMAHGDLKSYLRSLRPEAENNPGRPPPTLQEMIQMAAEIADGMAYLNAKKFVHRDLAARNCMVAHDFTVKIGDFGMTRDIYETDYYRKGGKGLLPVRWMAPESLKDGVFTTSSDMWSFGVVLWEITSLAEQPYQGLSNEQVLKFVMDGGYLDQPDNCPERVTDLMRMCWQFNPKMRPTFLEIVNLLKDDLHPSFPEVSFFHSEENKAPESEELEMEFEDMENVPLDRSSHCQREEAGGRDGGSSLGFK
Kind of assay: Biotinylated Peptide Substrate Assay, Insulin-R kinase. As to the method: as §1, §2, §3, §4, §5, §6

The target of the next assay is T6, EGF-R (Homo sapiens, UniProt P00533).
T6 construct: is purified from human A431 cell membranes; purchased Sigma, St. Louis, Mo; E3641; host or cells: human A431 cell membranes (endogenous receptor)
T6 sequence (P00533 25-1210): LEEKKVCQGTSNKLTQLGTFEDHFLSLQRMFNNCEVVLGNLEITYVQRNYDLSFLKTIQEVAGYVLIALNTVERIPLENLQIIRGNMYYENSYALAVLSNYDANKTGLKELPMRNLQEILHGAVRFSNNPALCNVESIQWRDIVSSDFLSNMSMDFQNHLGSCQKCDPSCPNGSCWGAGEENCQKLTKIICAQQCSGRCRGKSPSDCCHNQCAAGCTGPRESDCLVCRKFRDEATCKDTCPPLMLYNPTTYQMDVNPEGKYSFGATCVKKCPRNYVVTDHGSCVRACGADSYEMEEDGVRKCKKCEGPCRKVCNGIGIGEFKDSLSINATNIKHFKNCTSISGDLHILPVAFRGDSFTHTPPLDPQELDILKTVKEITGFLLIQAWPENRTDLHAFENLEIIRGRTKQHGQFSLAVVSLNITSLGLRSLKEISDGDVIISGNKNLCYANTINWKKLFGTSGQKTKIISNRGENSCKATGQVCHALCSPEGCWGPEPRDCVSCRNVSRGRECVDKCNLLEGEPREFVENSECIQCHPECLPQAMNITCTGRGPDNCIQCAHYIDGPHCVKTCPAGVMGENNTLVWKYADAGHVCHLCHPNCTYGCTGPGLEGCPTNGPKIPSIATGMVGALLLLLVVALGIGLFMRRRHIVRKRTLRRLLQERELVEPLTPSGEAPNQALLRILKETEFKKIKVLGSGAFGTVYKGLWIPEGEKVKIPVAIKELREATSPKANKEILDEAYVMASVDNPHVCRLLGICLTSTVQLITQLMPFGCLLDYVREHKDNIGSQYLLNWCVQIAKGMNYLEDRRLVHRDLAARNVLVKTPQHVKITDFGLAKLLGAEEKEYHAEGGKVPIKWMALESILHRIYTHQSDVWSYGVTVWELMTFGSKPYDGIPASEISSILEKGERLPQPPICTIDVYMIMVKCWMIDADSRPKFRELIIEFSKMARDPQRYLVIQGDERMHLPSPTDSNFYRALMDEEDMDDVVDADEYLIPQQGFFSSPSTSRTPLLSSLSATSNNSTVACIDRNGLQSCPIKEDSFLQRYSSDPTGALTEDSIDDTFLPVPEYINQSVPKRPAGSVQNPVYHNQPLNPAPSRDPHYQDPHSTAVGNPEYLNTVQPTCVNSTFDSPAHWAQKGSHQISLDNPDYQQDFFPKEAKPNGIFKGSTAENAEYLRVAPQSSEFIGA
Kind of assay: Biotinylated Peptide Substrate Assay, EGF-R. To be noted: read-out: EGF-R Kinase Assay (IC50 uM). As to the method: as §1, §2, §3, §4, §5, §6

The next assay concerns the target T7, VEGF-R (Rattus norvegicus, UniProt O08775).
T7 construct: polyhistidine (N)
Nature of the assay: Biotinylated Peptide Substrate Assay, VEGF-R. To be noted: read-out: VEGF-R Kinase Assay (IC50 uM). As to the method:
as §1, §2, §3, §4, §5, §6

T2 sequence (P06493 whole entry): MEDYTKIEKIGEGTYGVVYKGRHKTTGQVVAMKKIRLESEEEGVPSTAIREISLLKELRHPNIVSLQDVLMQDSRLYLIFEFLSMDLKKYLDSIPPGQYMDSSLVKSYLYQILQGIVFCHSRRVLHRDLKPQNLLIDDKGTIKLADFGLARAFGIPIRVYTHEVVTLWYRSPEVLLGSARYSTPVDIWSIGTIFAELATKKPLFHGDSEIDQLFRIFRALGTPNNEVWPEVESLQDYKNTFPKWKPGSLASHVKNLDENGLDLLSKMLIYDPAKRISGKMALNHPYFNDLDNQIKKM
T2 sequence (P14635 whole entry partner): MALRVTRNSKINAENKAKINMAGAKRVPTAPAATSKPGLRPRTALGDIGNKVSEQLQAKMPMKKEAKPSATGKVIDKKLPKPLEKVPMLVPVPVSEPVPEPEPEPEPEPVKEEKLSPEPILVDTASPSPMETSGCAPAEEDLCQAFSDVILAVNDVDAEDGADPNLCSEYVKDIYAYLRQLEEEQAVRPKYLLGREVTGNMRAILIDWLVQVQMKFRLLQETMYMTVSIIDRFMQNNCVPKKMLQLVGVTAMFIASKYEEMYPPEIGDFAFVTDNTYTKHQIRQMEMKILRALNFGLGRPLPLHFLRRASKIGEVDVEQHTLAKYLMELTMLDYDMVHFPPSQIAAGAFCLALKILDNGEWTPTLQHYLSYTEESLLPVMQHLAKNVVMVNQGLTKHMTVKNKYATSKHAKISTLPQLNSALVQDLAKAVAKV
T7 sequence (O08775 786-1343): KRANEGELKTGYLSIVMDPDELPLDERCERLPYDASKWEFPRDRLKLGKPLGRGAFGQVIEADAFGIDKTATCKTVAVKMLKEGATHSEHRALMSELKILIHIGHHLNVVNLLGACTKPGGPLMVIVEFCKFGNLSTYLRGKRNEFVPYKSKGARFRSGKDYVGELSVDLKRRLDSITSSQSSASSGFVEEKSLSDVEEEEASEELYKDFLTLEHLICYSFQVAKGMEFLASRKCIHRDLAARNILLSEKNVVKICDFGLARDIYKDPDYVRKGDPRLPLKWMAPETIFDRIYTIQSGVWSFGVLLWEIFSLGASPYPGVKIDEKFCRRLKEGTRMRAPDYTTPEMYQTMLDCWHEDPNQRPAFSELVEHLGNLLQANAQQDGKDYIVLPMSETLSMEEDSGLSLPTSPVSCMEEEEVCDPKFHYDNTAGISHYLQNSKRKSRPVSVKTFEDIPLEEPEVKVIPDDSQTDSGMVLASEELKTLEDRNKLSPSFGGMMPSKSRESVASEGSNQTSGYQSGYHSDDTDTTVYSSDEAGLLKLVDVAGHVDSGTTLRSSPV

Broadly, the IC50 is the midpoint of a concentration-inhibition curve. In the case of `O=C1NC(=O)C2=C1c1cn(c3ccccc13)CCOCCOCCOCCn1cc2c2cccnc21` [Cpd 11], the IC50 against Casein Kinase 1 was above 10 µM; on CDK1, 0.457 µM; at PKC-γ it was 2.85 µM; against Map kinase ERK-2, above 10 µM; on Insulin-R kinase, above 10 µM; at EGF-R, above 10 µM. On VEGF-R, the IC50 is 0.889 µM.

Consider `O=C1NC(=O)C2=C1c1cn(c3ccccc13)CCOCCOCCn1cc2c2cccnc21` [Cpd 10], for which the IC50 against Casein Kinase 1 is above 10 µM; at CDK1, 0.422 µM; at PKC-γ it was 7.8 µM; against Map kinase ERK-2, above 10 µM; against Insulin-R kinase it was above 10 µM; at EGF-R, above 10 µM. Moreover, on VEGF-R, the IC50 is 1.2 µM.

As for `O=C1NC(=O)C2=C1c1cn(c3ncccc13)CCOCCOCCOCCOCCn1cc2c2cccnc21` [Cpd 2], the IC50 against Casein Kinase 1 is above 10 µM; on CDK1 it was above 10 µM; at PKC-γ it was above 100 µM; at Map kinase ERK-2, above 10 µM; against Insulin-R kinase, above 10 µM; at EGF-R, above 10 µM. Also, the IC50 at VEGF-R is above 10 µM.

On to `O=C1NC(=O)C2=C1c1cn(c3ncccc13)CCOCCOCCOCCn1cc2c2cccnc21` [Cpd 1], for which the IC50 against Casein Kinase 1 was above 10 µM; at CDK1, above 10 µM; on PKC-γ, 38.7 µM; on Map kinase ERK-2, above 10 µM; against Insulin-R kinase it was above 10 µM; at EGF-R it was above 10 µM. Also, the IC50 at VEGF-R was above 10 µM.
